These results are taken from article PMC11833358 (Food Chemistry: X, 2025).

Several values for one entry are separate records, joined by “and”; a condition that tells them apart may be missing. Identical values can stand only once. Marks after values point to notes of the source that are not given here.

For series [1], the system named is Caco-2 cell monolayer. In words: Phenol red flux and apparent permeability across Caco-2 cell monolayer. It is filed as in vitro ADME, human. The conditions noted are these: AP→BL, 60 min, 5 μg/mL phenol red.
A short description of the next series: in vitro. To be noted: human, Caco-2.
For series [2], the system named is Caco-2 cell monolayer. To be noted: for ER (efflux ratio, Papp(BL→AP)/Papp(AP→BL)) / Papp (AP→BL) / Papp (BL→AP): constituent of DS 100 μg/mL, 180 min; for Papp (AP→BL) / Papp (BL→AP): from UPLC-ESI-MS/MS peak areas.
Series [3] concerns Caco-2 cell monolayer. The conditions noted are these: literature report; ref Chen et al., 2021; cited from earlier work.

Turning to `O=S1(=O)OC(c2ccc(O)cc2)(c2ccc(O)cc2)c2ccccc21` [Phenol red], the “Phenol red flux QBL” value was 4.18 ± 0.43^a μg in the series on Caco-2 cell monolayer [1] (cell culture time 3 days); 1.94 ± 0.70^b μg with Caco-2 cell monolayer [1] (cell culture time 6 days); 1.36 ± 0.44^bc μg in the series with Caco-2 cell monolayer [1] (cell culture time 9 days); 0.88 ± 0.15^cd μg with Caco-2 cell monolayer [1] (cell culture time 12 days); 0.49 ± 0.21 μg and 0.49 ± 0.21^d μg in the series with Caco-2 cell monolayer [1] (cell culture time 15 days); 0.40 ± 0.09^d μg in the series on Caco-2 cell monolayer [1] (cell culture time 18 days). In the series with Caco-2 cell monolayer [1] (cell culture time 21 days), the “Phenol red flux QBL” value was 0.37 ± 0.07^d μg.
On to `O=c1c(O[C@@H]2O[C@H](CO)[C@@H](O)[C@H](O)[C@H]2O)c(-c2ccc(O)cc2)oc2cc(O)cc(O)c12` [Astragalin], for which, in the series “in vitro”, the Papp A→B at 180 min, 100 μg/mL is 0.78 ×10⁻⁶ cm/s and the Papp B→A at 180 min, 100 μg/mL was 4.26 ×10⁻⁶ cm/s.
For the molecule “5,2′-Dihydroxy-7,8-dimethoxyflavone glycoside”, in the series with Caco-2 cell monolayer [2], the “ER (efflux ratio, Papp(BL→AP)/Papp(AP→BL))” value was found to be 2.29; the “Papp (AP→BL)” value is listed as 3.05 10^−6 cm/s; the “Papp (BL→AP)” value is 6.97 10^−6 cm/s.
Regarding `COc1ccc(-c2cc(=O)c3c(O)c(OC)c(OC)cc3o2)cc1O` [Eupatorin], in the series “in vitro”, the Papp A→B at 180 min, 100 μg/mL amounted to 2.17 ×10⁻⁶ cm/s and the Papp B→A at 180 min, 100 μg/mL is 17.3 ×10⁻⁶ cm/s.
For `O=c1c(-c2ccc(O[C@@H]3O[C@H](CO)[C@@H](O)[C@H](O)[C@H]3O)cc2)coc2cc(O)cc(O)c12` [Sophoricoside], in that order: 1.63 ×10⁻⁶ cm/s and 9.89 ×10⁻⁶ cm/s.
On to `COc1ccc2c(c1)OCC(=Cc1cccnc1)C2=O` [7-Methoxy-3-[1-(3-pyridyl)methylidene]-4-chromanone], for which, in the series with Caco-2 cell monolayer [2], the “Papp (AP→BL)” value was 20.87 10^−6 cm/s. Moreover, in “in vitro”, the Papp B→A at 180 min, 100 μg/mL worked out at 2.81 ×10⁻⁶ cm/s and the efflux ratio at 180 min, 100 μg/mL is 0.13.
As to `COc1cc(C[C@H]2C(=O)OC[C@@H]2Cc2ccc(OC)c(OC)c2)ccc1O` [Arctigenin], in “in vitro”, the Papp A→B at 180 min, 100 μg/mL was found to be 5.37 ×10⁻⁶ cm/s; the Papp B→A at 180 min, 100 μg/mL worked out at 25.2 ×10⁻⁶ cm/s; the efflux ratio at 180 min, 100 μg/mL is 4.69.
In “in vitro”, `COc1cc([C@@H]2Oc3c(OC)cc(CCCO)cc3[C@H]2CO)ccc1O` [Dihydrodehydrodiconiferyl alcohol] yielded a Papp A→B at 180 min, 100 μg/mL of 3.24 ×10⁻⁶ cm/s and a Papp B→A at 180 min, 100 μg/mL of 18.3 ×10⁻⁶ cm/s.
On to `CC(=O)Oc1ccccc1` [Phenyl acetate], for which, in “in vitro”, the Papp A→B at 180 min, 100 μg/mL was 8.89 ×10⁻⁶ cm/s and the Papp B→A at 180 min, 100 μg/mL came to 19.4 ×10⁻⁶ cm/s.
For `COc1cc(/C=C/C(=O)O)ccc1O` [Ferulic acid], in the series with Caco-2 cell monolayer [3], the Mode of translocation entry was “active transport”. Also, in the series with Caco-2 cell monolayer [2], the “ER (efflux ratio, Papp(BL→AP)/Papp(AP→BL))” value was found to be 2.25; the “Papp (AP→BL)” value is listed as 17.37 10^−6 cm/s; the “Papp (BL→AP)” value is recorded as 39.16 10^−6 cm/s.
In the case of `COc1cc(O)c(CC=C(C)C)c2c1C(=O)CC(c1ccc(O)cc1)O2` (stereo not drawn) [Isoxanthohumol], in the series on Caco-2 cell monolayer [3], the Mode of translocation result is listed as “active transport”. Also, in the series “in vitro”, the Papp A→B at 180 min, 100 μg/mL is 3.5 ×10⁻⁶ cm/s and the Papp B→A at 180 min, 100 μg/mL was found to be 23.2 ×10⁻⁶ cm/s.
Turning to `COc1cc(-c2oc3cc(O)c(OC)c(O)c3c(=O)c2OC)cc(OC)c1O` [5,7,4′-Trihydroxy-3,6,3′,5′-tetramethoxyflavone], in the series with Caco-2 cell monolayer [2] (VIP ≥ 1, p < 0.05, fold change >2.0 or < 0.5), the “Differential metabolite TSA vs. TSB” value is “upregulated”. In the series “in vitro”, the Papp A→B at 180 min, 100 μg/mL came out at 3.24 ×10⁻⁶ cm/s; the Papp B→A at 180 min, 100 μg/mL is 23.1 ×10⁻⁶ cm/s; the efflux ratio at 180 min, 100 μg/mL turned out to be 7.13.
With `COc1ccc(/C=C/C(=O)O)cc1O` [Isoferulic acid], the “Papp (AP→BL)” value in the series with Caco-2 cell monolayer [2] is listed as 24.51 10^−6 cm/s. Further, the Papp B→A at 180 min, 100 μg/mL in “in vitro” was 49.5 ×10⁻⁶ cm/s.
